Source: publication PMC11253633, “Robust leishmanicidal upshot of some new diphenyl triazine-based molecules” (RSC Advances, 2024)
“Also recorded” adds a separate entry of the source.

How the values were obtained:
L. amazonensis = system: L. amazonensis; set-up: method as in PMID 30817917; settings: cited from earlier work
L. infantum = system: L. infantum; set-up: method as in PMID 30817917; settings: cited from earlier work
[1] = system: L. donovani promastigotes; assay: Determination of promastigote cellular morphology (light microscopy); format: cell-based, Leishmania donovani; settings: 25, 50 and 100 μM, 72 h, light microscopy 40×
Protocol: For the evident of morphological changes, the promastigotes (Fig. 3 (C to L)) were incubated in presence of compound T7, T4 and control Ampho B with the different concentration 25 μM, 50 μM, 100 μM shown in (Fig. 3C to L) were analysed by light microscopy (40×magnification) compared to untreated cells (Fig. 4A).
Fig. 4 Morphological Analysis of promastigote stage cells treated with compound T4 and MTF, compared to the untreated control (A) and DMSO treated control (B). Exponential-phase promastigotes (1 × 10^6 cells per mL) were incubated with 25 μm, 50 μm and 100 μm and analysed by light microscopy (40× magnification). (A) Untreated control (B) DMSO Treated cells (C–E) Ampho B, (F–H) T4 and T7 (I–K) at 25, 50, and 100 μM respectively. Scale bar in all is 10 μm.
Variations in the cellular morphology of Leishmania parasites due to the treatment with compounds T4 and T7 was detected microscopically. Briefly, the promastigotes (1× 10^6 cells per mL) were incubated in the absence or presence of test compounds and MTF and AmphoB for 72 h with different concentrations and observed under 40× objective of a phase-contrast microscope. […] Data were recorded by using NIS-Elements imaging software.[32]

L. donovani amastigotes = assay: Anti-amastigote assay in infected THP-1 macrophages (Giemsa); format: cell-based, Leishmania donovani; settings: for Inhibitory activity against amastigotes (in words): 100–6.25 μM, infected macrophages; for IC50: infected THP-1 macrophages, 72 h
Protocol: To evaluate the anti-leishmanial effect of the compound T4 and T7 on intracellular L. donovani parasites, macrophage was infected with stationary -phase L. donovani for 6 h. The cells were then washed with saline to remove any non-internalised parasites. To assess the effect of compounds T4 and T7 on intracellular parasites at early stages of infection, macrophages were subsequently treated with T4 and T7 at concentrations of 100, 50, 25, 12.5, or 6.25 μM (refer to Table 3 and Fig. 7) for 6, 24, or 48 hours.
THP-1 cells (5 × 10^5 cells per mL) were cultivated in RPMI-1640 media (Roswell Park Memorial Institute 1640) (Sigma-Aldrich, USA), supplemented with 10% fetal calf serum and maintained at 37 °C with 5% CO2 using phorbol ester as the inducer. These cells were added on circular coverslips (1 × 10^6 cells per mL). Promastigotes of L. donovani were introduced at 1 : 20 ratio. Treatment of the samples was carried out at doses of 100, 50, 25, 12.5, 6.25 and 3.125 μM/72 h. After being taken off, the coverslips were stained with Giemsa. The rate of macrophage infection was then ascertained.

[2] = system: L. donovani promastigotes; assay: Dose-dependent anti-promastigote activity and determination of IC50 (MTT); format: cell-based; settings: Leishmania donovani, 72 h, 3 days at 26 °C
Protocol: MTF was used as a standard antileishmanial drug control. The cell viability was evaluated (by MTT Assay) and the mean percentage viability was calculated as follows: Mean cell number of treated parasites/mean cell number of untreated parasites × 100. The 50 and 90% inhibitory concentration (IC50) i.e., the concentration of drugs that decreased the cell growth by 50 and 90% respectively, was determined by graphical extrapolation after plotting the graph of percentage viability vs. concentration of the drug.[31]
Parasite viability was not affected by DMSO (0.2%, data not shown) used as solvent control.[33]

[3] = system: L. donovani promastigotes; assay: Anti-leishmanial screening against L. donovani promastigotes at a single concentration (MTT); format: cell-based, Leishmania donovani; settings: 72 h at 26 °C, MTT; for % Inhibition of L. donovani promastigotes: 100 μM; for inhibition at 100 µM: Leishmania donovani, 72 h
Protocol: Each candidate was evaluated for its in vitro activity against reference strain (MHOM/IN/83/AG83) of extracellular promastigotes and intracellular amastigotes of L. donovani.
Promastigotes were routinely cultured at 26 °C in medium M199 supplemented with 10% heat inactivated fetal bovine serum (FBS, Gibco Laboratories, Mumbai, India), penicillin 100 (IU mL^−1), streptomycin (100 μg mL^−1). Log phase promastigotes were sub-cultured every 72–96 h, the inoculum being 2 × 10^6 cells per mL.[29]
The triazin hybrids series was evaluated for their antileishmanial ability against L. donovani promastigotes in vitro. Promastigotes of L. donovani (1× 10^6 cells per mL) in M199 medium were incubated at 26 °C for 72 h with each compound at a concentration of 100 μM. Miltefosine (MTF) was used as a reference drug, 0.2% DMSO as solvent control. Parasites with media alone were taken as control. Parasite viability was achieved by MTT assay after 72 h (Sharma et al. 2023).[30]

[4] = system: Human macrophage THP-1 cell line; assay: Cytotoxicity assay on THP-1 cell line (MTT); format: cell-based; settings: 3.125–100 μM
Protocol: The cell lines were incubated for 48 h at 37 °C in a CO2 incubator with increasing concentrations of test compounds and viability was ascertained. Each point or bar corresponds to the mean ± SEM of triplicate samples and is representative of one of three independent experiments.
THP-1 human monocytic cells were grown at 37 °C in medium RPMI-1640 (pH 7.4, Sigma-Aldrich, St. Louis, MO, USA) supplemented with 10% heat-inactivated FBS for 48 to 72 h in a humidified atmosphere of 5% CO2 and sub-cultured in fresh RPMI-1640 medium at an average density 2 × 10^5 cells per mL (Sharma et al. 2023).[30]
Human macrophage THP-1 cell line of 0.5 × 10^6 cells per mL seeded in RPMI-1640 medium (Sigma-Aldrich, USA) supplemented with 10% FBS (GIBCO) in presence of 5% CO2 at 37 °C in triplicate in 96 well culture plate. The cells were treated with two-fold serially diluted concentrations (100–3.125 μM) of the candidate molecules for 72 h. The IC50 was calculated using MTT assay (Sharma et al. 2023).[30]

amastigote = system: amastigote; set-up: method as in PMID 29702355; settings: read-out: IC50 against amastigote; cited from earlier work
promastigote = system: promastigote; set-up: method as in PMID 29702355; settings: read-out: IC50 against promastigote; cited from earlier work

Compound | selectivity index against the axenic amastigotes (L. amazonensis; L. amazonensis axenic amastigotes) | selectivity index against the promastigotes (L. amazonensis; L. amazonensis promastigotes) | selectivity index against the axenic amastigotes (L. infantum; L. infantum axenic amastigotes) | selectivity index against the promastigotes (L. infantum; L. infantum promastigotes) | Cellular morphological alterations in promastigotes (in words) [1] | melting point | Percentage reduction of parasites (amastigote) (L. donovani amastigotes; 6.25 μM) | Percentage reduction of parasites (amastigote) (L. donovani amastigotes; 12.5 μM) | Percentage reduction of parasites (amastigote) (L. donovani amastigotes; 25 μM) | Percentage reduction of parasites (amastigote) (L. donovani amastigotes; 50 μM) | Percentage reduction of parasites (amastigote) (L. donovani amastigotes; 100 μM) | Inhibitory activity against amastigotes (in words) (L. donovani amastigotes) | IC50 (L. donovani amastigotes; Leishmania donovani, THP-1, 72 h) | IC50 (L. donovani amastigotes) | IC50 [2] | % Inhibition of L. donovani promastigotes [3] | inhibition at 100 µM [3] | Cytotoxicity on THP-1 human macrophages (in words) [4] | IC50 (amastigote) | IC50 (promastigote)
CN(C)c1ccnc2cc(Cl)ccc12 [7-chloro-N, N-dimethylquinolin-4-amine] | 74.3 | 86.4 | 137.6 | 154.6 | – | – | – | – | – | – | – | – | – | – | – | – | – | – | – | –
COc1ccc(C(=O)CCSc2nnc(-c3ccccc3)c(-c3ccccc3)n2)cc1OC [T4, 1-(3,4-Dimethoxyphenyl)-3-((5,6-diphenyl-1,2,4-triazin-3-yl)thio)propan-1-one] | – | – | – | – | loss of flagella | 210 to 212 °C | 66% | 68.80% | 70% | 74% | 78.0% | good inhibitory activity; also recorded: capable of inhibiting the growth | 5.18 µM | 7.19 µM | 1.07 µM | 99.67% | > 90% | nontoxic; also recorded: no adverse effects; also recorded: Absence of adverse toxicity | – | –
CC1CCN(c2cc(Sc3nnc(-c4ccccc4)c(-c4ccccc4)n3)ncn2)CC1 [T7, 3-((6-(4-Methylpiperidin-1-yl)pyrimidin-4-yl)thio)-5,6-diphenyl-1,2,4-triazine] | – | – | – | – | loss of flagella | 250 to 252 °C | 56% | 62% | 66% | 70.6% | 72% | good inhibitory activity; also recorded: capable of inhibiting the growth | – | – | 1.16 µM | 99.89% | > 90% | – | – | –
Clc1cc(Cl)ncn1 [compound 5] | – | – | – | – | – | – | – | – | – | – | – | – | – | – | – | – | – | – | < 25 µM | < 25 µM
